Assay results taken from patent publication US20250327191A1, “CORROSSION INHIBITOR COMPOSITIONS” (Tata Consultancy Services Limited, priority 2024, published 2025).

Test: Corrosion inhibition on steel coupons immersed in 1M HCl for 2 hrs
Description: The corrosion inhibitor composition of the example—1 is tested for its corrosion inhibition effect on steel at two temperatures. The steel being the ferrous alloy has the following composition:
The steel coupons are initially abraded with various emery papers of decreasing coarseness i.e. 80, 150, 220, 400 grits to obtain a fine finish surface. The fine finished coupons are cleaned with acetone and then wrapped in paper to avoid any further oxidation and stored in a safe and dry place until further use. The 400 grit finished coupons are immersed in 100 ml 1M HCl solution for 2 hrs at room temperature and at […], to find out the corrosion rate. Similarly, the fine finished coupons are also immersed in 100 ml 1M HCl along with the composition of the example—1 with an effective concentration of inhibitor 200, 500 and 1000 ppm for 2 hrs at room temperatures. […] As, it is also essential for the corrosion inhibitors to perform well in case of higher temperatures. Further, the composition of example—1 is tested at higher temperatures. The below Table-2 provides the information on test results. It is evident from the Table-2 that the inhibition efficiencies at 60° C. is relatively higher than that of room temperature. The average corrosion rates (CR) at room temperature and 60° C. in 1 M HCl without inhibitor for 2 hrs immersion are 1.1081 cm/y and 16.42325 cm/y respectively. The inhibition efficiency (IE) is calculated using the formula: […]

## Cc1ccc(C=O)s1 [5-Methyl-2-thiophenecarboxaldehyde, 5-methyl-2-thiophenecarboxaldehyde]
200 ppm, no KI intensifier, 27 °C
  IE (%): 54.03%
500 ppm, no KI intensifier, 27 °C
  IE (%): 63.58%
1000 ppm, 0.1 wt % KI, 27 °C
  IE (%): 84.07%
1000 ppm, 0.25 wt % KI, 27 °C
  IE (%): 90.43%
1000 ppm, 0.5 wt % KI, 27 °C
  IE (%): 92.36%
1000 ppm, 0.5 wt % KI, 60 °C
  IE (%): 95.06%
1000 ppm, no KI intensifier, 27 °C
  IE (%): 72.65%
